Source: US20200231614A1, “PSMA TARGETED RADIOHALOGENATED UREAS FOR CANCER RADIOTHERAPY” (THE JOHNS HOPKINS UNIVERSITY, priority 2015, published 2020)
Like-named read-outs stand apart in the source and are kept apart here.

Columns and labels:
PSMA = PSMA (Homo sapiens, UniProt Q04609); assay: PSMA binding affinity (Ki); details: measured Ki, Table 11
From the text: Lysine glutamate ureas compounds for radiotherapy are disclosed in FIG. 2.

[1] = system: PSMA + PC-3 PiP and PSMA − PC-3 flu tumor xenografts; details: radioiodinated compound, Chen et al., 2008; cited from earlier work
[2] = system: PSMA + PC-3 PiP and PSMA − PC-3 flu tumor xenografts; details: for Non-target organ uptake: spleen / Non-target organ uptake: stomach / Non-target organ uptake: thyroid: comparative Table 13; for Biodistribution: PC-3 PiP: PSMA+ tumor xenograft; for Biodistribution: PC-3 flu: PSMA− tumor xenograft; for PSMA positive tumor uptake (in words): biodistributions of Tables 2, 3, 9, 10
[3] = system: PSMA+(PIP) tumors and PSMA−(Flu) tumors; assay type: in vivo; details: 3 to 19 days after single-bolus injection (20 μCi), PSMA+(PIP) vs PSMA−(Flu) tumors
PSMA positive cells = assay: In vitro radiotoxicity (cell kill); details: vs. free [^211At]astatide (FIG. 5B)
LNCaP cells = assay: Uptake by LNCaP cells in presence and absence of PSMA inhibitor; details: 2 h and 4 h, presence and absence of PSMA inhibitor 2-PSMA (FIG. 5A)

PSMA, sequence (Q04609 whole entry): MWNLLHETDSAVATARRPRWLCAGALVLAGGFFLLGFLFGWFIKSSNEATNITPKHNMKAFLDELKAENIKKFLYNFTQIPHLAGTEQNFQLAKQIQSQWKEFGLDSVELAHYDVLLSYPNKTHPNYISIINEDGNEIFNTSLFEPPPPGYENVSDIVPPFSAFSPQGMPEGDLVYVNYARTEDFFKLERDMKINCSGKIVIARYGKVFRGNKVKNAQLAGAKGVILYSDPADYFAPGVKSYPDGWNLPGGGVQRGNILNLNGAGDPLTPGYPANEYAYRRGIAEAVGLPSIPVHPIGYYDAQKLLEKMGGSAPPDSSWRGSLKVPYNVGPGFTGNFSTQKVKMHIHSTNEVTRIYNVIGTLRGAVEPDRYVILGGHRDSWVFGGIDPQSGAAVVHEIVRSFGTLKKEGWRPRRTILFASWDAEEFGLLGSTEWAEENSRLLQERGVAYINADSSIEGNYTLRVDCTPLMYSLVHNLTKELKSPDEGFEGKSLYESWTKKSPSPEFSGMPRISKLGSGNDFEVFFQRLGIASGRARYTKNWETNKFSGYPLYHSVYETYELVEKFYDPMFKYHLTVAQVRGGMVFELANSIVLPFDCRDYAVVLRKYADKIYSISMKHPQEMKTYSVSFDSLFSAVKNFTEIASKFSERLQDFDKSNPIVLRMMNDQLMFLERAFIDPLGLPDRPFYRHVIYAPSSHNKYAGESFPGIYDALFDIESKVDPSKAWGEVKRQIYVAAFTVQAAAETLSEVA

## O=C(O)CC[C@H](NC(=O)N[C@@H](CCC(=O)NCCc1ccc(I)cc1)C(=O)O)C(=O)O [HS-549, (((5)-1-Carboxy-4-((4-iodophenethyl)amino)-4-oxobutyl)carbamoyl)-L-glutamic Acid]
PSMA
  Ki: 0.01 nM

## O=C(O)CC[C@H](NC(=O)N[C@@H](CCCCNC(=O)c1ccc(I)cc1)C(=O)O)C(=O)O [YC-I-27]
[1]
  Tumor uptake (in words): high and prolonged tumor uptake

## O=C(O)CC[C@H](NC(=O)N[C@@H](CCC(=O)NCCc1ccc([211At])cc1)C(=O)O)C(=O)O [[^211At]HS-549]
[2]; 1 H post-injection
  Biodistribution: Lrg Int.: 1.16 ± 0.20 % ID/g
  Biodistribution: Sm int.: 5.52 ± 0.82 % ID/g
  Biodistribution: bladder: 5.85 ± 1.62 % ID/g
  Biodistribution: blood: 5.53 ± 0.84 % ID/g
  Biodistribution: heart: 4.34 ± 0.96 % ID/g
  Biodistribution: kidney: 46.7 ± 8.24 % ID/g
  Biodistribution: liver: 7.94 ± 2.15 % ID/g
  Biodistribution: lung: 9.77 ± 1.75 % ID/g
  Biodistribution: muscle: 1.11 ± 0.29 % ID/g
  Biodistribution: spleen: 8.79 ± 2.09 % ID/g
  Biodistribution: stomach: 7.07 ± 2.24 % ID/g
  Biodistribution: thyroid: 3.24 ± 0.56 % ID/g
  Biodistribution: PC-3 PiP: 43.25 ± 9.81 % ID/g
  Biodistribution: PC-3 flu: 3.48 ± 0.53 % ID/g
[2]; 2 H post-injection
  Biodistribution: Lrg Int.: 4.59 ± 0.81 % ID/g
  Biodistribution: Sm int.: 3.81 ± 1.24 % ID/g
  Biodistribution: bladder: 5.04 ± 0.87 % ID/g
  Biodistribution: blood: 2.87 ± 0.40 % ID/g
  Biodistribution: heart: 3.36 ± 0.59 % ID/g
  Biodistribution: kidney: 40.4 ± 15.5 % ID/g
  Biodistribution: liver: 4.65 ± 1.28 % ID/g
  Biodistribution: lung: 8.24 ± 2.25 % ID/g
  Biodistribution: muscle: 0.76 ± 0.18 % ID/g
  Biodistribution: spleen: 6.13 ± 1.59 % ID/g
  Biodistribution: stomach: 14.3 ± 3.18 % ID/g
  Biodistribution: thyroid: 4.11 ± 2.0 % ID/g
  Biodistribution: PC-3 PiP: 42.0 ± 7.16 % ID/g
  Biodistribution: PC-3 flu: 2.82 ± 0.60 % ID/g
[2]; 21 H post-injection
  Biodistribution: Lrg Int.: 0.93 ± 0.41 % ID/g
  Biodistribution: Sm int.: 1.28 ± 0.30 % ID/g
  Biodistribution: bladder: 2.78 ± 0.82 % ID/g
  Biodistribution: blood: 0.92 ± 0.15 % ID/g
  Biodistribution: kidney: 2.60 ± 0.77 % ID/g
  Biodistribution: liver: 0.89 ± 0.13 % ID/g
  Biodistribution: lung: 4.26 ± 0.72 % ID/g
  Biodistribution: muscle: 0.29 ± 0.09 % ID/g
  Biodistribution: spleen: 2.31 ± 0.67 % ID/g
  Biodistribution: stomach: 12.6 ± 6.20 % ID/g
  Biodistribution: thyroid: 3.78 ± 0.63 % ID/g
  Non-target organ uptake: spleen: 2.2 % D/g
  Non-target organ uptake: stomach: 12.6 % D/g
  Non-target organ uptake: thyroid: 3.8 % D/g
  Biodistribution: PC-3 PiP: 10.6 ± 9.91 % ID/g
[2]
  PSMA positive tumor uptake (in words): demonstrated PSMA positive tumor uptake
[2]; compared with YC-I-27
  Renal clearance and normal tissue uptake (in words): faster renal clearance and lower normal tissue uptake than YC-I-27
[2]; compared with [^131I]YC-I-27 and [^211At]YC-I-27
  Clearance from the kidneys (in words): clear from the kidneys giving higher tumor to kidney ratios
[2]; from uptake in stomach, spleen and thyroid compared to the ^131I analogue
  In vivo stability of the At-211 label (in words): some instability of the At-211 label

## O=C(O)CC[C@H](NC(=O)NC(CCCCNC(=O)c1ccc([211At])cc1)C(=O)O)C(=O)O (stereo partly drawn) [[^211At]YC-I-27, (2S)-2-(3-(1-Carboxy-5-(4-[^211At]asatatobenzamido)pentyl)ureido)pentanedioic Acid]
[3]
  Tumor growth inhibition: PSMA Specific Tumor Growth Inhibition
PSMA positive cells
  Cell kill: effectively kill cell relative to the untargeted alpha emitter
[2]; 1 H post-injection
  Biodistribution: Sm int.: 3.67 ± 0.65 % ID/g
  Biodistribution: bladder: 5.45 ± 2.57 % ID/g
  Biodistribution: blood: 1.67 ± 0.32 % ID/g
  Biodistribution: heart: 2.36 ± 0.48 % ID/g
  Biodistribution: kidney: 71.5 ± 12.0 % ID/g
  Biodistribution: liver: 2.11 ± 0.65 % ID/g
  Biodistribution: lung: 5.82 ± 1.28 % ID/g
  Biodistribution: muscle: 0.95 ± 0.15 % ID/g
  Biodistribution: spleen: 29.2 ± 10.2 % ID/g
  Biodistribution: stomach: 10.1 ± 1.66 % ID/g
  Biodistribution: thyroid: 3.68 ± 1.10 % ID/g
  Biodistribution: PC-3 PiP: 17.9 ± 2.98 % ID/g
  Biodistribution: PC-3 flu: 2.18 ± 0.44 % ID/g
[2]; 2 H post-injection
  Biodistribution: Sm int.: 2.08 ± 0.41 % ID/g
  Biodistribution: bladder: 4.55 ± 0.86 % ID/g
  Biodistribution: blood: 1.26 ± 0.15 % ID/g
  Biodistribution: heart: 1.79 ± 0.31 % ID/g
  Biodistribution: kidney: 60.2 ± 6.16 % ID/g
  Biodistribution: liver: 1.58 ± 0.21 % ID/g
  Biodistribution: lung: 6.30 ± 1.57 % ID/g
  Biodistribution: muscle: 0.81 ± 0.12 % ID/g
  Biodistribution: spleen: 20.3 ± 5.21 % ID/g
  Biodistribution: stomach: 9.29 ± 2.86 % ID/g
  Biodistribution: thyroid: 3.56 ± 0.95 % ID/g
  tumor/kidney ratio: 0.3
  Biodistribution: PC-3 PiP: 20.7 ± 3.42 % ID/g
  Biodistribution: PC-3 flu: 1.81 ± 0.27 % ID/g
[2]; 4 H post-injection
  Biodistribution: Sm int.: 1.85 ± 0.23 % ID/g
  Biodistribution: bladder: 4.17 ± 0.74 % ID/g
  Biodistribution: blood: 0.99 ± 0.12 % ID/g
  Biodistribution: heart: 1.65 ± 0.39 % ID/g
  Biodistribution: kidney: 60.2 ± 11.5 % ID/g
  Biodistribution: liver: 1.63 ± 0.10 % ID/g
  Biodistribution: lung: 5.54 ± 1.79 % ID/g
  Biodistribution: muscle: 0.72 ± 0.14 % ID/g
  Biodistribution: spleen: 20.3 ± 3.55 % ID/g
  Biodistribution: stomach: 13.3 ± 3.12 % ID/g
  Biodistribution: thyroid: 3.83 ± 1.18 % ID/g
  Biodistribution: PC-3 PiP: 18.3 ± 2.90 % ID/g
  Biodistribution: PC-3 flu: 1.53 ± 0.22 % ID/g
[2]; 18 H post-injection
  Biodistribution: Sm int.: 1.08 ± 0.10 % ID/g
  Biodistribution: bladder: 2.51 ± 0.39 % ID/g
  Biodistribution: blood: 0.53 ± 0.05 % ID/g
  Biodistribution: heart: 1.10 ± 0.16 % ID/g
  Biodistribution: kidney: 57.4 ± 7.36 % ID/g
  Biodistribution: liver: 0.82 ± 0.07 % ID/g
  Biodistribution: lung: 3.61 ± 0.40 % ID/g
  Biodistribution: muscle: 0.49 ± 0.27 % ID/g
  Biodistribution: spleen: 8.01 ± 2.04 % ID/g
  Biodistribution: stomach: 9.42 ± 3.04 % ID/g
  Biodistribution: thyroid: 6.50 ± 1.97 % ID/g
  Non-target organ uptake: spleen: 8.0 % D/g
  Non-target organ uptake: stomach: 9.4 % D/g
  Non-target organ uptake: thyroid: 6.5 % D/g
  Biodistribution: PC-3 PiP: 31.1 ± 9.78 % ID/g
  Biodistribution: PC-3 flu: 1.17 ± 0.20 % ID/g
[2]; 21 H post-injection
  tumor/kidney ratio: 0.5
[2]
  PSMA positive tumor uptake (in words): demonstrated PSMA positive tumor uptake
LNCaP cells
  Uptake by LNCaP cells: is blocked, indicating target (PSMA) specific binding
